The values below come from EP2698385A1, “Detection of synthetic cannabinoids” (priority 2012, dated 2014).

What all share (type): binding, sheep
The subject of experiment [1] is antibodies raised to Immunogens I & II. Put plainly: Competitive ELISA (Example 19), sensitivity and cross-reactivity of selected molecules, one result for both antibodies. The settings on record: for % CR / IC50: first Table 3, Standard Conc 750.00 ng/ml. How it is done: Aqueous solutions of the immunogens prepared in examples 5 and 13 were formulated with Freund's Complete Adjuvant (FCA) to form emulsions consisting of 2mg/ml Immunogen I and 2mg/ml of Immunogen II in 50%(v/v) FCA. Three sheep were immunised with each emulsion (1° immunisations), 0.25ml being intramuscularly injected at four sites in the rump of each animal. Subsequent immunisations (boosts 2-8) contained 1mg/ml Immunogen I and 1mg/ml Immunogen II. All boosts were emulsified in 50%(v/v) Freund's Incomplete Adjuvant (FIA) and administered to the appropriate sheep in the same manner as the 1° immunisations, at monthly intervals. Blood sampling took place 7-14 days after each boost. Each sample was processed to produce antiserum, which was further purified by caprylic acid and ammonium sulphate precipitation to yield an immunoglobulin (Ig) fraction. The Ig fraction was evaluated by competitive ELISA microtiter plate assay, as described in example 19 below.
Example 19: Development of competitive ELISA for JWH synthetic cannabinoids and metabolites. • (a) The wells of an enhanced binding 96 well polystyrene microtiter plate were coated with the Ig fraction of the antiserum raised to Immunogen I (Hapten A-BTG - example 5) and diluted in 10mM Tris, pH8.5 (125µl/well). The appropriate antibody coating concentration was determined using standard ELISA checkerboard techniques. The plate was incubated for 2 hours at 37°C, washed 4 times over a 10-minute period with Tris buffered saline containing Tween 20 (TBST) and tapped dry. Standard solutions of JWH synthetic cannabinoids, metabolites and selected molecules were prepared in TBST and 50µl of each was added to the appropriate wells. 75µl of conjugate (Hapten A-HRP) diluted in Tris buffer containing EDTA, D-mannitol, sucrose, thimerosal and BSA, was added to each of the wells. The appropriate dilution of conjugate was also determined using standard ELISA checkerboard techniques. The plate was incubated at 25°C for 1 hour. The excess unbound conjugate was removed by washing 6 times over a 10-minute period with TBST and tapped dry. 125µl of tetramethylbenzedine (TMB) substrate solution was added to each well of the plate that was then incubated for 15-20 minutes in the dark at room temperature. The reaction was terminated by addition of 125µl of 0.2M sulphuric acid to each well. The absorbance was then measured at 450nm using a microtiter plate reader. Employing each series of standards, calibration curves were generated and these were used to determine the specificity of the immunoassay for the JWH synthetic cannabinoids, metabolites and selected molecules. The results of this study are presented in Tables 1 to 3, cross-reactivity being calculated according to the following formula: %CR = […] /IC50,CR X 100 [formula] Where %CR is the percentage cross-reactivity, IC50, YWH-018 is the concentration of JWH-018 that causes 50% displacement of signal and IC50, CR is the concentration of JWH synthetic cannabinoid/metabolite/selected molecule that causes 50% displacement of signal.
Table 2: Data generated from a competitive microtiter plate assay for JWH synthetic cannabinoids and metabolites, employing antiserum raised to Immunogen I (Hapten A-BTG) and conjugate (Hapten A-HRP) as detection reagent. • (c) The resulting competitive ELISA for synthetic cannabinoids and metabolites was further employed to analyse urine and serum samples from 20 patients (Table 3). • (d) The resulting competitive ELISA for synthetic cannabinoids and metabolites was also employed to test for the 5-fluoropentyl derivative of JWH-018, (1-(5-fluoropentyl)indol-3yl (1-naphthyl) methanone (Table 4).
Background: In an ELISA, binding on a coated surface is turned into a signal by an enzyme label.

In experiment [2] the test system is Antibody to Immunogen VIII. As to conditions: Cross-reactants at 100 ng/ml; Antibody to Immunogen VIII.
In experiment [3] the test system is Antibody to Immunogen VII. As to conditions: Cross-reactants at 100 ng/ml; Antibody to Immunogen VII.
In the next experiment the test system is Antibody to Immunogen IV. The settings on record: Cross-reactants at 100 ng/ml; Antibody to Immunogen IV.
The test system of another experiment is Antibody to Immunogen II. Kind of experiment: Competitive ELISA (Example 36), antibody RS1833B12, tracer ESC4555/LK959, standard JWH-018. As to conditions: Cross-reactants at 100 ng/ml; Antibody to Immunogen II. How it is done: An aqueous solution of each immunogen was formulated with Freund's Complete Adjuvant (FCA) to form an emulsion consisting of 2mg/ml* immunogen in 50% (v/v) FCA. Three sheep were immunised with this emulsion (1° immunisation), 0.25ml being intramuscularly injected at each of four sites in the flank of each animal. Subsequent immunizations (boosts) contained 1mg/ml* immunogen. All boosts were emulsified in 50% (v/v) Freund's Incomplete Adjuvant (FIA) and were administered in the same manner as the 1° immunisation, at monthly intervals. Blood sampling took place 7 to 14 days after each boost. *The general procedure for immunogen administration is outlined above, however, it was necessary to deviate from this protocol in some cases, due to reduced immunogen concentrations (Immunogens II, IV, VII and VIII) and/or amount available (Immunogen VIII). Any deviations from the protocol described are outlined in Table 1A below and highlighted in bold. Table 1A: Amount and volume of immunogens administered for primary and subsequent boosts
The appropriate antibody coating dilution was determined using standard ELISA checkerboard techniques. The plate was incubated overnight at 4°C, washed 4 times over 10 minutes with Tris buffered saline containing Tween 20 (TBST) and tapped dry. […] 75µl of conjugate (appropriate hapten-HRP) diluted in Tris buffer (pH 7.2) containing EDTA, D-mannitol, sucrose, thimerosal and BSA, was added to each of the wells. The appropriate dilution of conjugate was also determined using standard ELISA checkerboard techniques. The plate was incubated at 25°C for 1 hour. Excess unbound conjugate was removed by washing 6 times over a 10 minute period with TBST. 125µl of tetramethylbenzidine (TMB) substrate solution was added to each well of the plate that was then incubated for 20 minutes in the dark at room temperature. The reaction was terminated by addition of 125µl 0.2M H2SO4 to each well. The absorbance was then measured at 450nm using a microtiter plate reader. The data are inputted to a computer program called 'KC Junior'. It is a 4 parameter fit curve and allow the calculatation of concentrations between the standard runs.
In a similar manner to that described above, the wells of a 96-well microtiter plate were coated with the IgG fraction of the antiserum raised to Immunogens I or II.
The data set our in Tables 3 and 4 are generated using antibodies raised against the indicated Immunogens in a competitive binding assay with the indicated tracers, using the indicated standards: Table 2
Using the calibration curves generated and employing a single level of cross reactants, these were used to determine the cross-reactivity of each immunoassay with these substances. These are the standards used for the IC50 and cross-reactivity data generation • Immunogen I - JWH-018 • Immunogen II - JWH-018 • Immunogen IV - JWH-018 • Immunogen VII - JWH-015 • Immunogen VIII - JWH-018 Table 4: Cross reactivity of the competitive ELISAs for synthetic cannabinoids and their metabolites

Another experiment has as its system Antibody to Immunogen I. As to conditions: Cross-reactants at 100 ng/ml; Antibody to Immunogen I. In short, it runs like this:
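Sheep anti-Immunogen I IgG coated on plates, then JWH-018 standards (0–40 ng/ml) competed with hapten-HRP conjugate for 1 h at 25°C. TMB read-out at 450 nm, 4-parameter fit. IC50 is the standard concentration giving 50% B/B0; cross-reactivity of related cannabinoids taken from the calibration curves.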

Consider `CCCCCn1cc(C(=O)O)c2ccccc21` [3-Carboxy-N-pentyl-1H -indole, 3-carboxy-1-pentyl-1H-indole], for which, in experiment [1], the “% CR” value is listed as under 0.28% and the IC50 was over 0.75 µg/mL.
`COc1cccc2[nH]cc(CCN(C)C)c12` [4-Methoxypsilocin]: in experiment [1], the “% CR” value is given as under 0.28% and the IC50 was over 0.75 µg/mL.
As to `O=C(O)Cc1c[nH]c2ccc(O)cc12` [5-hydroxyindole-3-acetic acid (5-HIAA), 5-hydroxyindole-3-acetic acid], the “% CR” value in experiment [1] was under 0.28%. The IC50 in experiment [1] was over 0.75 µg/mL. Further, the figures for the “%B/B0” value (in experiment [2]; in experiment [3]; in the experiment on Antibody to Immunogen IV) were 108.24%, 99.46% and 96.61%, respectively.
On to `OCCc1c[nH]c2ccc(O)cc12` [5-hydroxytryptophol], for which the “% CR” value in experiment [1] is given as under 0.28%. For the same compound, the IC50 in experiment [1] was over 0.75 µg/mL. Also, the “%B/B0” value in experiment [2] was determined as 102.93%; in experiment [3] it was 98.45%; in the experiment on Antibody to Immunogen IV it was 94.51%.
In the case of `CCCCCc1cc(O)c2c(c1)OC(C)(C)[C@@H]1CCC(CO)=C[C@@H]21` [11-Hydroxy-δ-9-THC], in experiment [1], the “% CR” value is under 0.28% and the IC50 was over 0.75 µg/mL.
Regarding `CCCCCc1cc(O)c2c(c1)OC(C)(C)c1ccc(C)cc1-2` [Cannabinol], the “% CR” value in experiment [1] is on record as under 0.28%. Moreover, the IC50 in experiment [1] is over 0.75 µg/mL. Also, the figures for the “%B/B0” value (in experiment [2]; in experiment [3]; with Antibody to Immunogen IV) were 94.03%, 95.43% and 94.74%, respectively.
Consider `CCn1cc(C(=O)c2cccc3ccccc23)c2ccccc21` [JWH-071], for which the “binding / cross-reaction with antibodies raised from Immunogens I and II” value in experiment [1] (result in words) is listed as “bind”.
With `O=C(O)CCCn1cc(C(=O)c2cccc3ccccc23)c2ccccc21` [JWH-073 N-butanoic acid metabolite], the “%B/B0” value in the experiment on Antibody to Immunogen II turned out to be 92.20%; in experiment [2] it was 94.98%; in experiment [3], 60.01%; with Antibody to Immunogen IV it was 98.95%; with Antibody to Immunogen I, 6.88%.
The matching figures for `CCCCCn1cc(C(=O)c2cccc3c(OC)cccc23)c2ccccc21` [JWH-081 5-methoxynaphthyl isomer]: 60.90%, 26.56%, 94.16%, 6.24% and 18.51%.
Turning to `Cc1ccc(C(=O)c2cn(CCCCCO)c3ccccc23)c2ccccc12` [JWH-122 N-(5-hydroxypentyl) metabolite], the “%B/B0” value is 71.76% in the experiment on Antibody to Immunogen II; 48.67% in experiment [2]; 83.65% in experiment [3]; 25.72% in the experiment on Antibody to Immunogen IV; 42.80% in the experiment with Antibody to Immunogen I.
Turning to `CCCCCn1cc(C(=O)c2ccc(C)c3ccccc23)c2ccccc21` [JWH-122], the “%B/B0” value was 44.55% in the experiment with Antibody to Immunogen II; 14.43% in experiment [2]; 89.37% in experiment [3]; 3.94% in the experiment with Antibody to Immunogen IV; 62.98% in the experiment with Antibody to Immunogen I.
`O=C(c1cccc2ccccc12)c1cn(CCN2CCOCC2)c2cccc(O)c12` [JWH-200 4-hydroxyindole metabolite]: the “%B/B0” value turned out to be 78.17% with Antibody to Immunogen II; 91.82% in experiment [2]; 91.15% in experiment [3]; 87.88% in the experiment with Antibody to Immunogen IV; 44.97% in the experiment on Antibody to Immunogen I.
Turning to `O=C(c1cccc2ccccc12)c1cn(CCN2CCOCC2)c2ccc(O)cc12` [JWH-200 5-hydroxyindole metabolite], the “%B/B0” value with Antibody to Immunogen II is 64.99%; in experiment [2], 90.88%; in experiment [3] it was 82.42%; in the experiment with Antibody to Immunogen IV, 97.53%; in the experiment with Antibody to Immunogen I, 12.61%.
On the same counts, the results for `O=C(c1cccc2ccccc12)c1cn(CCN2CCOCC2)c2cc(O)ccc12` [JWH-200 6-hydroxyindole metabolite] are 61.65%, 83.20%, 65.52%, 94.41% and 7.27%.
`CCCCCn1cc(C(=O)c2cccc3c(Cl)cccc23)c2ccccc21` [JWH-398 5-chloronaphthyl isomer]: the “%B/B0” value in the experiment with Antibody to Immunogen II was 23.50%; in experiment [2], 19.67%; in experiment [3] it was 91.33%; in the experiment with Antibody to Immunogen IV, 7.06%; in the experiment with Antibody to Immunogen I, 35.53%.
As to `O=C(c1ccc(Cl)c2ccccc12)c1cn(CCCCCO)c2ccccc12` [JWH-398 N-(5-hydroxypentyl) metabolite], the “%B/B0” value in the experiment with Antibody to Immunogen II worked out at 67.49%; in experiment [2], 51.33%; in experiment [3] it was 82.97%; with Antibody to Immunogen IV it was 22.01%; with Antibody to Immunogen I, 48.07%.
Regarding `CCCCCn1cc(C(=O)c2ccccc2OC)c2ccccc21` [RCS-4 2-methoxy isomer], the “%B/B0” value in the experiment on Antibody to Immunogen II is recorded as 42.74%; in experiment [2], 29.32%; in experiment [3], 87.27%; in the experiment with Antibody to Immunogen IV, 15.28%; in the experiment with Antibody to Immunogen I, 29.14%.
For the compound `NCCc1c[nH]c2ccc(O)cc12` [Serotonin], in experiment [1], the “% CR” value is given as under 0.28% and the IC50 is over 0.75 µg/mL.

As usually defined, the IC50 is the concentration needed to halve the response being measured.
